Data published in patent US20250250608A1, “METHODS AND COMPOSITIONS FOR ASSAYING BETA-HEXOSAMINIDASE ENZYMATIC ACTIVITY VIA MASS SPECTROMETRY” (GelbChem, LLC, priority 2024, published 2025).

Experiments:
[1] = Substrate stability over incubation in sodium formate buffer; type: physicochemical; settings: 24 hour incubation at 37° C. in sodium formate buffer; read-out: recovery of the substrates (stability)
HexA/B = assay: Enzyme kinetics of HexA/B with the HexA/B substrate, endogenous enzymes from healthy adult dried blood spots, LC-MS/MS detection; type: biochemical; settings: read-out: Michaelis-Menten constant (Km)
Description: 3.2 mm punches were taken from dried blood samples. The punches were added into a well of a multiwell plate and in particular, a 1.0 mL deep-well 96-well plate. Following, 30 μL of the duplex assay cocktail described above was added to each well. The plate was sealed with a silicone sealing mat and shaken at 250 rpm for 4 hours at 37° C. in an orbital shaker incubator. After incubation, the enzymatic reaction was quenched by adding 100 μL of methanol: ethyl acetate (1:1) and mixed by pipetting up and down ˜10 times. Analytes were extracted by adding sodium chloride solution (0.5 M, 200 μL) and ethyl acetate (400 μL) to each well and mixed by pipetting up and down ˜10 times. […]
(§1) Analytes were detected via a WATERS™ Xevo TQ triple-quadrupole mass spectrometer. […] The following MRM traces were monitored for quantitation: HexA enzymatic reaction product (456.5>356.1), HexA/B enzymatic reaction product (461.5>361.2), and internal standard (465.5>357.1). […]
Enzyme kinetics of HexA and HexA/B were measured in relationship to the HexA substrate and HexA/B substrate, respectively, using endogenous enzymes from healthy adult dried blood spots. […]
The reaction rate for each substrate at different substrate concentrations was measured and the relationship found to be hyperbolic.

HexA [2] = biological target: T1, HexA (Homo sapiens, UniProt P06865); assay: Competitive inhibition: HexA activity with the HexA substrate in presence and absence of the HexA/B substrate, dried blood spots from healthy individuals; type: biochemical; settings: HexA substrate in presence vs absence of HexA/B substrate
T1 construct: using endogenous enzymes from healthy adult dried blood spots; from tissue; host or cells: dried blood spots from healthy adults/individuals (3.2 mm punches)
T1 sequence (P06865 89-529): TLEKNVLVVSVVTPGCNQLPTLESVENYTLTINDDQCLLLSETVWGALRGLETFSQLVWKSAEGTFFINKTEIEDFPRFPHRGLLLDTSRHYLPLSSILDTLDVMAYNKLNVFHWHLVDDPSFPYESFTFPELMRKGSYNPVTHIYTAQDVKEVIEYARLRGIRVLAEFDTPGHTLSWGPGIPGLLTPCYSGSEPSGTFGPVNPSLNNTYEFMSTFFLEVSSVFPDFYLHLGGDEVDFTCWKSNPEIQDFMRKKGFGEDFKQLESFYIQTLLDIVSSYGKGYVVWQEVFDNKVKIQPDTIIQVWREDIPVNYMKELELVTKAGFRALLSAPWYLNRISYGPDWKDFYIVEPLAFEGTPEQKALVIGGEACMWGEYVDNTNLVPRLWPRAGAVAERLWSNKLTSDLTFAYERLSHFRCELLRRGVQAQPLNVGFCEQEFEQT
T1 sequence (P07686 122-556 partner): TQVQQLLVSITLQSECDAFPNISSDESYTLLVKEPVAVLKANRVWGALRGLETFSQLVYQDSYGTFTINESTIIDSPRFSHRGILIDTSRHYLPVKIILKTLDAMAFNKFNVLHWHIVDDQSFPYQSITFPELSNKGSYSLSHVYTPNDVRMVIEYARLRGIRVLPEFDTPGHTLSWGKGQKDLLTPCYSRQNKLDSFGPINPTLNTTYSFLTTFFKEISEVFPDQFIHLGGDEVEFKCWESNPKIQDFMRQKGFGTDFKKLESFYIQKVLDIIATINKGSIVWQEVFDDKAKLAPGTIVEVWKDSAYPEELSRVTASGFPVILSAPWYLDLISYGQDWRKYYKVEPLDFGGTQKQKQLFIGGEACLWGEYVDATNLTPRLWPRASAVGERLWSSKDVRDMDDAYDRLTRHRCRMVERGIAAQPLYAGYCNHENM
Description: The HexA/B substrate binds to both HexA and HexB, whereas the HexA substrate binds to only the HexA; thus, the HexA/B substrate may theoretically block the action of HexA on the HexA substrate by competitive binding (i.e. competitive inhibition). An experiment was done to test this theory where HexA enzymatic activity was measured in dried blood spots from healthy individuals using the HexA substrate in the presence and absence of the HexA/B substrate.

HexA [3] = biological target: T1, HexA; assay: Analytical range of duplex assay, HexA activity; type: biochemical; settings: dried blood spots
Description: 3.2 mm punches were taken from dried blood samples. The punches were added into a well of a multiwell plate and in particular, a 1.0 mL deep-well 96-well plate. Following, 30 μL of the duplex assay cocktail described above was added to each well. The plate was sealed with a silicone sealing mat and shaken at 250 rpm for 4 hours at 37° C. in an orbital shaker incubator. After incubation, the enzymatic reaction was quenched by adding 100 μL of methanol: ethyl acetate (1:1) and mixed by pipetting up and down ˜10 times. Analytes were extracted by adding sodium chloride solution (0.5 M, 200 μL) and ethyl acetate (400 μL) to each well and mixed by pipetting up and down ˜10 times. The plate was centrifuged at 3000×g for 5 min at ambient temperature, then 200 μL of the upper ethyl acetate layer was transferred to a 96-well microplate. […]
as §1
The analytical range, as calculated by dividing the enzymatic activity in healthy individual samples over the enzymatic activity in a blank, was determined to be 82 for the HexA substrate and 3,400 for the HexA/B substrate.

Row | SMILES | recovery at 24 h [1] [%] | Km (HexA/B) [mM] | competitive inhibition of HexA enzymatic activity on the HexA substrate (HexA [2]) | analytical range (enzymatic activity in healthy individual samples over enzymatic activity in a blank) (HexA [3])
1 | [2H]c1c([2H])c([2H])c(C(=O)NCCCCN(CCC(=O)Nc2ccc(OC3OC(CO)C(O)C(O)C3NC(C)=O)cc2)C(=O)OC(C)(C)C)c([2H])c1[2H] (centres unmarked) [HexA/B substrate] | > 100 | 3.06 | no competitive inhibition | 
2 | CC(=O)NC1C(Oc2ccc(NC(=O)CCN(CCCCNC(=O)c3ccccc3)C(=O)OC(C)(C)C)cc2)OC(COS(=O)(=O)O)C(O)C1O (centres unmarked) [HexA substrate] | > 100 |  |  | 82
